Data as given in article PMC8845285, “Serotoninergic receptor ligands improve Tamoxifen effectiveness on breast cancer cells” (BMC Cancer, 2022).

How the values were obtained:
Format in all cases: cell-based, human
MDA-MB231 cells = experiment: MDA-MB231 cell viability, sulforhodamine B assay; settings: for inhibition of MDA-MB231 cell growth: 100 μM, 72 h; for IC50: Homo sapiens, MDA-MB-231, 72 h treatment
Method: (§1) MCF7 (ER^+, PR^+, HER2^−), SKBR3 (ER^−, PR^+, HER2^+) and MDA-MB231 (ER^−, PR^−, HER2^−) human BC cells and MCF10A non-cancer breast epithelial cells were available in our laboratory. MCF7, SKBR3 and MDA-MB231 cells were cultured in DMEM, supplemented with 10% FBS, 2 mM glutamine, 100 units/ml penicillin and 100 units/ml streptomycin. MCF10A cells were cultured in MEBM, supplemented with 0.4% BPE, 0.1% hEGF, 0.1%, Insulin, 0.1% Hydrocortisone and 0.1% GA-1000. […] Treatment with SER were carried out in culture conditions. Treatment with Tamoxifen and/or SER were carried out upon 48 h estrogen starvation in phenol-red free medium supplemented with 10% Charcoal Stripped (C/S) FBS, 2 mM glutamine, 100 units/ml penicillin and 100 units/ml streptomycin.
(§2) Cells were fixed with 50% trichloroacetic acid for at least 2 h at 4 °C, washed with distilled and de-ionized water, air-dryed and stained 30 min with 0.4% sulforhodamine B in 1% acetic acid. Unbound dye was removed and 10 mM tris-HCl solution (pH 7.5) was added to dissolve the protein-bound dye. Cell survival was assessed by optical density determination at 510 nm using a microplate reader.
Cell viability was assessed, after 72 h, by sulforhodamine B assay (see Methods).

MCF7 cells = experiment: MCF7 responsiveness to Tamoxifen in presence of SER, sulforhodamine B assay; settings: Tamoxifen 5 μM, E2 100 nM, 72 h, estrogen-starved MCF7
Method: as §1, §2
After 72 h, cell cycle was assessed by Propidium Iodide staining (see Methods). […] As positive control, the cells were treated with E2 and SER alone (without Tamoxifen, dotted line). After 72 h, cell viability was assessed by sulforhodamine B assay (see Methods). […] After 72 h, mRNA levels of CTGF were determined by qPCR (see Methods and Table 1). Data were normalized on Ribosomal Protein S23 (Rps23) gene as internal standard and were reported as CTGF mRNA levels in MCF7 treated with SER relative to those in untreated cells (dotted line). a-c Data represent the mean ± SD of at least three independent triplicate experiments. * denotes statistically significant values compared with (a) percentage of untreated cells in G0/G1, S and G2/M cell cycle phase (*pval<0.05,**pval<0.01), (b) positive control (*adjp<0.05,**adjp <0.01,***adjp<0.001), (c) untreated cells (pval<0.05); # denotes statistically significant values compared with cells treated with Tamoxifen in absence of SER (#pval<0.05)
Fig. 7 Effect of low doses of SER79 and SER68 on MCF7 and MCF10A cells. a Estrogen-starved MCF7 cells (48 h) were treated with Tamoxifen (5 μM) in presence of E2 (100nM) and SER79 (5 μM) or SER68 (20 μM, 5 μM). As positive control, the cells were treated with E2 and SER alone (without Tamoxifen, dotted line). After 72 h, cell viability was assessed by sulforhodamine B assay (see Methods). […] After 72 h, mRNA levels of CTGF were determined by qPCR (see Methods and Table 1). Data were normalized on Ribosomal Protein S23 (Rps23) gene as internal standard. Bars represent CTGF mRNA levels in MCF7 treated with SER relative to those in untreated cells (dotted line). c MCF10A non-cancer breast epithelial cells were treated with SER79 (5 μM) or SER68 (20 μM). After 72 h, cell viability was assessed by sulforhodamine B assay (see Methods).

CTGF = CTGF mRNA levels in Tamoxifen-cultured MCF7 cells, qPCR; settings: Tamoxifen-cultured MCF7, doses able to restore Tamoxifen responsiveness, 72 h
Method: Total RNA was isolated from cells, quantified (NanoDrop spectrophotometer, Life Technologies, Carlsbad, CA, USA) and reverse transcribed according to the manufacturer’s instructions. Semiquantitative PCR and qPCR assays were performed according to manufacturer’s instructions for Bio-Rad T100 thermal cycler and CFX Connect Real Time system (Biorad, Hercules, CA, USA), respectively. Relative gene expression quantification was measured by 2^−ΔΔCt method normalizing for the reference sample using Rps23 (Ribosomal Protein S23) as housekeeping gene.
Fig. 8 Effect of SER79 and SER68 on Tamoxifen-cultured MCF7 cells. MCF7 cells were cultured in presence of Tamoxifen (1 μM) for 10 days. Estrogen-starved MCF7 and Tamoxifen-cultured MCF7 cells (48 h) were (a-c) treated with SER79 (20 μM, 5 μM) or SER68 (40 μ, 20 μM), (b) treated with Tamoxifen (5 μM) in presence of SER79 (20 μM, 5 μM) or SER68 (40 μM, 20 μM). All treatments were carried out in presence of E2 (100 nM) for 72 h. As positive control, the cells were treated with (a-c) E2 alone or (b) E2 in absence or in presence of SER (as indicated, dotted line). a,b Cell viability was assessed by sulforhodamine B assay (see Methods). The results were reported as percentage of viable cells compared to positive control, considered as maximum viability (100%). c mRNA levels of CTGF were determined by qPCR (see Methods and Table 1). […]

SMILES	inhibition of MDA-MB231 cell growth (MDA-MB231 cells)	IC50 (MDA-MB231 cells) [µM]	further decrease of cell viability compared with Tamoxifen alone (MCF7 cells; SER 5 μM)	further decrease of cell viability compared with Tamoxifen alone (MCF7 cells; SER 20 μM)	further decrease of cell viability compared with Tamoxifen alone (MCF7 cells; SER at IC50 dose)	CTGF levels after SER compared with those in Tamoxifen-responsive MCF7 cells (CTGF)
O=C1C2C3C=CC(C3)C2C(=O)N1OCCN1CCN(c2ccc(Cl)c(Cl)c2)CC1 (centres unmarked) [SER68]	able to inhibit	171 ± 37.3	No further effect	≈ 20%	≈ 30%	significantly lower
N#CN=C(NCCCN1CCN(C(c2ccc(F)cc2)c2ccc(F)cc2)CC1)c1ccccn1 [SER79]	able to inhibit	117	≈ 15%		≈ 15%	similar
